Laboratory results as given in the NIST ThermoML archive (doi:10.1021/acs.jced.7b00347).
Numbers after ± are expanded uncertainties.

Assay: mn = molality of the nth substance listed, in mol/kg
Settings: for surface tension liquid-gas: Ring tensiometer; for electrical conductivity: 100 kPa, Liquid, Alternating current cell with electrodes

Work on `CCCCCCCCC[NH+](CCO)CC(C)O.[Cl-]` (stereo not drawn) + O yielded a surface tension liquid-gas (293.15 K, m1 = 1.774e-05) of 61.16 ± 0.79 mN/m, a surface tension liquid-gas (293.15 K, m1 = 3.548e-05) of 54.59 ± 0.71 mN/m and a surface tension liquid-gas (293.15 K, m1 = 8.87e-05) of 46.05 ± 0.61 mN/m. It also gave a surface tension liquid-gas (293.15 K, m1 = 0.0001774) of 39.04 ± 0.53 mN/m, a surface tension liquid-gas (293.15 K, m1 = 0.0002661) of 35.47 ± 0.49 mN/m and a surface tension liquid-gas (293.15 K, m1 = 0.0003548) of 33.14 ± 0.47 mN/m. For the same compound, the surface tension liquid-gas (293.15 K, m1 = 0.0004257) was 31.39 ± 0.45 mN/m, the surface tension liquid-gas (293.15 K, m1 = 0.000887) was 30.48 ± 0.44 mN/m and the surface tension liquid-gas (293.15 K, m1 = 0.001774) was 29.73 ± 0.44 mN/m. For the same compound, the surface tension liquid-gas (293.15 K, m1 = 0.002661) was 29.56 ± 0.43 mN/m, the surface tension liquid-gas (293.15 K, m1 = 0.003547) was 29.48 ± 0.43 mN/m and the electrical conductivity (293.15 K, m1 = 1.77e-05) was 0.00044 ± 2.5e-05 S/m. For the same compound, the electrical conductivity (293.15 K, m1 = 3.66e-05) was 0.000507 ± 2.8e-05 S/m, the electrical conductivity (293.15 K, m1 = 5.55e-05) was 0.000574 ± 3.2e-05 S/m and the electrical conductivity (293.15 K, m1 = 7.43e-05) was 0.000641 ± 3.5e-05 S/m. The electrical conductivity (293.15 K, m1 = 9.32e-05) was 0.000709 ± 4e-05 S/m, the electrical conductivity (293.15 K, m1 = 0.0001121) was 0.000776 ± 4.4e-05 S/m and the electrical conductivity (293.15 K, m1 = 0.0001309) was 0.000843 ± 4.8e-05 S/m. For the same compound, the electrical conductivity (293.15 K, m1 = 0.0001498) was 0.00091 ± 5.2e-05 S/m, the electrical conductivity (293.15 K, m1 = 0.0001687) was 0.000977 ± 5.7e-05 S/m and the electrical conductivity (293.15 K, m1 = 0.0001875) was 0.00104 ± 6.1e-05 S/m. The electrical conductivity (293.15 K, m1 = 0.0002064) was 0.00111 ± 6.5e-05 S/m, the electrical conductivity (293.15 K, m1 = 0.0002253) was 0.00118 ± 7e-05 S/m and the electrical conductivity (293.15 K, m1 = 0.0002441) was 0.00125 ± 7.4e-05 S/m. The electrical conductivity (293.15 K, m1 = 0.000263) was 0.00131 ± 7.9e-05 S/m, the electrical conductivity (293.15 K, m1 = 0.0002819) was 0.00138 ± 8.3e-05 S/m and the electrical conductivity (293.15 K, m1 = 0.0003008) was 0.00145 ± 8.7e-05 S/m. The electrical conductivity (293.15 K, m1 = 0.0003196) was 0.00152 ± 9.2e-05 S/m, the electrical conductivity (293.15 K, m1 = 0.0003385) was 0.00158 ± 9.6e-05 S/m and the electrical conductivity (293.15 K, m1 = 0.0003574) was 0.00165 ± 0.0001 S/m. It also gave an electrical conductivity (293.15 K, m1 = 0.0003762) of 0.00172 ± 0.00011 S/m, an electrical conductivity (293.15 K, m1 = 0.0003951) of 0.00178 ± 0.00011 S/m and an electrical conductivity (293.15 K, m1 = 0.000414) of 0.00185 ± 0.00011 S/m. The electrical conductivity (293.15 K, m1 = 0.0004328) was 0.00192 ± 0.00012 S/m, the electrical conductivity (293.15 K, m1 = 0.0004555) was 0.00197 ± 0.00012 S/m and the electrical conductivity (293.15 K, m1 = 0.0004782) was 0.00202 ± 0.00013 S/m. For the same compound, the electrical conductivity (293.15 K, m1 = 0.0005009) was 0.00207 ± 0.00013 S/m, the electrical conductivity (293.15 K, m1 = 0.0005236) was 0.00212 ± 0.00013 S/m and the electrical conductivity (293.15 K, m1 = 0.0005464) was 0.00217 ± 0.00013 S/m. For the same compound, the electrical conductivity (293.15 K, m1 = 0.0005691) was 0.00222 ± 0.00013 S/m, the electrical conductivity (293.15 K, m1 = 0.0005918) was 0.00227 ± 0.00014 S/m and the electrical conductivity (293.15 K, m1 = 0.0006145) was 0.00232 ± 0.00014 S/m. The electrical conductivity (293.15 K, m1 = 0.0006372) was 0.00236 ± 0.00014 S/m, the electrical conductivity (293.15 K, m1 = 0.0006599) was 0.00242 ± 0.00014 S/m and the electrical conductivity (293.15 K, m1 = 0.0006826) was 0.00246 ± 0.00014 S/m. The electrical conductivity (293.15 K, m1 = 0.0007053) was 0.00251 ± 0.00015 S/m, the electrical conductivity (293.15 K, m1 = 0.000728) was 0.00256 ± 0.00015 S/m and the electrical conductivity (293.15 K, m1 = 0.0007507) was 0.00261 ± 0.00015 S/m. It also gave an electrical conductivity (293.15 K, m1 = 0.0007734) of 0.00266 ± 0.00015 S/m, an electrical conductivity (293.15 K, m1 = 0.0007961) of 0.00271 ± 0.00015 S/m and an electrical conductivity (293.15 K, m1 = 0.0008188) of 0.00276 ± 0.00015 S/m. For the same compound, the electrical conductivity (293.15 K, m1 = 0.0008415) was 0.00281 ± 0.00016 S/m, the electrical conductivity (293.15 K, m1 = 0.0008642) was 0.00286 ± 0.00016 S/m and the electrical conductivity (293.15 K, m1 = 0.0008869) was 0.00291 ± 0.00016 S/m. It also gave a surface tension liquid-gas (298.15 K, m1 = 1.774e-05) of 56.05 ± 0.73 mN/m, a surface tension liquid-gas (298.15 K, m1 = 3.548e-05) of 49.71 ± 0.66 mN/m and a surface tension liquid-gas (298.15 K, m1 = 8.87e-05) of 41.62 ± 0.56 mN/m. For the same compound, the surface tension liquid-gas (298.15 K, m1 = 0.0001774) was 35.73 ± 0.49 mN/m, the surface tension liquid-gas (298.15 K, m1 = 0.0002661) was 32.44 ± 0.46 mN/m and the surface tension liquid-gas (298.15 K, m1 = 0.0003619) was 30.45 ± 0.44 mN/m. For the same compound, the surface tension liquid-gas (298.15 K, m1 = 0.000887) was 29.41 ± 0.43 mN/m, the surface tension liquid-gas (298.15 K, m1 = 0.001774) was 28.9 ± 0.43 mN/m and the surface tension liquid-gas (298.15 K, m1 = 0.002661) was 28.56 ± 0.42 mN/m. For the same compound, the surface tension liquid-gas (298.15 K, m1 = 0.003547) was 28.41 ± 0.42 mN/m, the electrical conductivity (298.15 K, m1 = 1.77e-05) was 0.00054 ± 3e-05 S/m and the electrical conductivity (298.15 K, m1 = 4.07e-05) was 0.000642 ± 3.7e-05 S/m. For the same compound, the electrical conductivity (298.15 K, m1 = 6.36e-05) was 0.000745 ± 4.1e-05 S/m, the electrical conductivity (298.15 K, m1 = 8.66e-05) was 0.000848 ± 7.7e-05 S/m and the electrical conductivity (298.15 K, m1 = 0.0001095) was 0.00095 ± 5.7e-05 S/m. It also gave an electrical conductivity (298.15 K, m1 = 0.0001324) of 0.00105 ± 6e-05 S/m, an electrical conductivity (298.15 K, m1 = 0.0001554) of 0.00115 ± 6.6e-05 S/m and an electrical conductivity (298.15 K, m1 = 0.0001783) of 0.00126 ± 0.00012 S/m. The electrical conductivity (298.15 K, m1 = 0.0002013) was 0.00136 ± 9.1e-05 S/m, the electrical conductivity (298.15 K, m1 = 0.0002242) was 0.00146 ± 9.3e-05 S/m and the electrical conductivity (298.15 K, m1 = 0.0002472) was 0.00156 ± 9.6e-05 S/m. It also gave an electrical conductivity (298.15 K, m1 = 0.0002701) of 0.00167 ± 9.2e-05 S/m, an electrical conductivity (298.15 K, m1 = 0.000293) of 0.00177 ± 0.00039 S/m and an electrical conductivity (298.15 K, m1 = 0.000316) of 0.00187 ± 0.0001 S/m. For the same compound, the electrical conductivity (298.15 K, m1 = 0.0003389) was 0.00198 ± 0.00021 S/m, the electrical conductivity (298.15 K, m1 = 0.0003619) was 0.00208 ± 0.0003 S/m and the electrical conductivity (298.15 K, m1 = 0.0003881) was 0.00215 ± 0.00013 S/m. The electrical conductivity (298.15 K, m1 = 0.0004144) was 0.00222 ± 0.00014 S/m, the electrical conductivity (298.15 K, m1 = 0.0004406) was 0.00229 ± 0.00013 S/m and the electrical conductivity (298.15 K, m1 = 0.0004669) was 0.00237 ± 0.00014 S/m. The electrical conductivity (298.15 K, m1 = 0.0004931) was 0.00244 ± 0.00013 S/m, the electrical conductivity (298.15 K, m1 = 0.0005194) was 0.00251 ± 0.00014 S/m and the electrical conductivity (298.15 K, m1 = 0.0005456) was 0.00258 ± 0.00014 S/m. The electrical conductivity (298.15 K, m1 = 0.0005719) was 0.00265 ± 0.00018 S/m, the electrical conductivity (298.15 K, m1 = 0.0005981) was 0.00273 ± 0.00015 S/m and the electrical conductivity (298.15 K, m1 = 0.0006244) was 0.0028 ± 0.00015 S/m. For the same compound, the electrical conductivity (298.15 K, m1 = 0.0006507) was 0.00287 ± 0.00016 S/m, the electrical conductivity (298.15 K, m1 = 0.0006769) was 0.00294 ± 0.00016 S/m and the electrical conductivity (298.15 K, m1 = 0.0007032) was 0.00301 ± 0.00017 S/m. It also gave an electrical conductivity (298.15 K, m1 = 0.0007294) of 0.00309 ± 0.00017 S/m, an electrical conductivity (298.15 K, m1 = 0.0007557) of 0.00316 ± 0.00017 S/m and an electrical conductivity (298.15 K, m1 = 0.0007819) of 0.00323 ± 0.00018 S/m. For the same compound, the electrical conductivity (298.15 K, m1 = 0.0008082) was 0.0033 ± 0.00018 S/m and the electrical conductivity (298.15 K, m1 = 0.0008344) was 0.00337 ± 0.00019 S/m.
